Assay results from patent publication US8946420B2, “Neuromodulatory compounds” (Map Pharmaceuticals, Inc., priority 2011, dated 2015).

What was measured:
[1] = target: T1, Recombinant human serotonin 5-HT2A receptor (Homo sapiens, UniProt P28223); test: Aequorin assay, receptor agonist/antagonist activity, CHO-K1 cells; format: cell-based
T1 construct: expressed in transfected cells; host or cells: CHO-K1 cells co-expressing mitochondrial apoaequorin
Experimental: (§1) Compound 5A was synthesized as described above and assayed for receptor activity against a panel of dopaminergic and serotoninergic receptors. Recombinant human receptors serotonin 5-HT2A, 5-HT2B were expressed in CHO-K1 cells and activity (receptor agonist/antagonist activity) was assayed using an Aequorin assay (coexpression of mitochondrial apoaequorin) and Compound 5a at a concentration of 0.10 nM to 20,000 nM for agonist activity and 0.005 nM to 10,000 nM for antagonist activity. […]. The preserved 5-HT2B antagonism activity is hypothesized to a decrease or minimized occurrence of fibrosis (cardiac and non-cardiac) as it is thought that 5-HT2B agonism is responsible for this undesirable side-effect in other iso-ergoline compounds. […]. A decreased agonist activity towards the D3 receptor by Compound 5a is likely to produce minimal or decreased hallucinogenic effects. […].

[2] = target: T2, Recombinant human serotonin 5-HT2B receptor (Homo sapiens, UniProt P41595); test: as above; format: cell-based
T2 construct: expressed in transfected cells; host or cells: CHO-K1 cells co-expressing mitochondrial apoaequorin
T2 sequence (P41595 whole entry): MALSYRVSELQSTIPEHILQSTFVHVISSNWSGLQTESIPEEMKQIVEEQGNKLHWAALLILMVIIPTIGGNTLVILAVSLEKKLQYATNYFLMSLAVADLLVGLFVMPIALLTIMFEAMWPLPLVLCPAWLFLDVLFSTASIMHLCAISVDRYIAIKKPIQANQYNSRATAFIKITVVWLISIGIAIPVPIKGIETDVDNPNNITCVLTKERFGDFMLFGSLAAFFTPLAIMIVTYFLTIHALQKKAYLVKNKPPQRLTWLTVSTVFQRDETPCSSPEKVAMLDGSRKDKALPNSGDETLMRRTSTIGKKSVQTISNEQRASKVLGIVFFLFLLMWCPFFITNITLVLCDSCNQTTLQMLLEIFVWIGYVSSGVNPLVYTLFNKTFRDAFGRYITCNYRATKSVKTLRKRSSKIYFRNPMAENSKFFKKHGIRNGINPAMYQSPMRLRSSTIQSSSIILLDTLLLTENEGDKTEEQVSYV
Experimental: as §1

[3] = target: Recombinant human dopaminergic receptor D3 (Homo sapiens, UniProt P35462); test: GTPγS functional assay; format: biochemical
Sequence of Recombinant human dopaminergic receptor D3 (P35462 whole entry): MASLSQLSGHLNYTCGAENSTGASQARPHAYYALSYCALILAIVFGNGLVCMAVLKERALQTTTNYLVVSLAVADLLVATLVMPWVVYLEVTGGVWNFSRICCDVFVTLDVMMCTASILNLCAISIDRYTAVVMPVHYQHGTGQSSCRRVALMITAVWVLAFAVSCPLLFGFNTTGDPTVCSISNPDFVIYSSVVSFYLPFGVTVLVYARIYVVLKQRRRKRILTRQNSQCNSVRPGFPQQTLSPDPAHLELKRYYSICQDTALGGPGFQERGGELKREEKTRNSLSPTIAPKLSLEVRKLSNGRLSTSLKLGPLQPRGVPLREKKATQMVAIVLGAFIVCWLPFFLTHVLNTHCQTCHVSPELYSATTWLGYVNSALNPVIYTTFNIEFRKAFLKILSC

[4] = target: Recombinant human dopaminergic receptor D2L (Homo sapiens, UniProt P14416); test: GTPγS functional assay; format: biochemical; conditions: in words
Sequence of Recombinant human dopaminergic receptor D2L (P14416 whole entry): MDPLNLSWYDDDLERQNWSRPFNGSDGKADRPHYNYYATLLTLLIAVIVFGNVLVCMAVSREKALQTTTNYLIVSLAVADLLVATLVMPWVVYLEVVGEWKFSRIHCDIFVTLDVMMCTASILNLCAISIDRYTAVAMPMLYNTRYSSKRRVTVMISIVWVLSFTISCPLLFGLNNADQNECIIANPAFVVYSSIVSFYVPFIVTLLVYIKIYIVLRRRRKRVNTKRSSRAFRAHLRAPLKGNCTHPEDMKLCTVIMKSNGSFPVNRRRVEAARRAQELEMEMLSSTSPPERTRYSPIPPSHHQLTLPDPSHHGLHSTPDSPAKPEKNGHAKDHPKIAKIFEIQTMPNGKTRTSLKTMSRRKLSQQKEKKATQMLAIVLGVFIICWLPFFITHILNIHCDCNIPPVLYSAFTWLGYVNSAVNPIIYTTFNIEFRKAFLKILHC

[5] = target: T3, Recombinant human serotonin receptor 5-HT1A (Homo sapiens, UniProt P08908); test: GTPγS functional assay; format: biochemical; conditions: in words
T3 sequence (P08908 1-422): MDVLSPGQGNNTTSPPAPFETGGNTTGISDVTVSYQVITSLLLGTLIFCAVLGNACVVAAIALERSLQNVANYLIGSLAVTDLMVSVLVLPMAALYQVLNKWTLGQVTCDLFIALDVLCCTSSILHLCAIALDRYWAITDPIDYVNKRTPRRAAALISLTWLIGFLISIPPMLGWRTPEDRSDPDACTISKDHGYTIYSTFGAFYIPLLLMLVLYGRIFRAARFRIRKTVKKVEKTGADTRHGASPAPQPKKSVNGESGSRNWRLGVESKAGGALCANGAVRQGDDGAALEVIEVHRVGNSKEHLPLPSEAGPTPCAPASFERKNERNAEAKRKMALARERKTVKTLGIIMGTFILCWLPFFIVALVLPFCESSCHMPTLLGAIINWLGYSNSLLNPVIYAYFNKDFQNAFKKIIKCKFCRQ

[6] = target: Recombinant human serotonin receptor 5-HT1B (Homo sapiens, UniProt P28222); test: GTPγS functional assay; format: biochemical; conditions: read-out: 5-HT1B agonism, EC50
Sequence of Recombinant human serotonin receptor 5-HT1B (P28222 whole entry): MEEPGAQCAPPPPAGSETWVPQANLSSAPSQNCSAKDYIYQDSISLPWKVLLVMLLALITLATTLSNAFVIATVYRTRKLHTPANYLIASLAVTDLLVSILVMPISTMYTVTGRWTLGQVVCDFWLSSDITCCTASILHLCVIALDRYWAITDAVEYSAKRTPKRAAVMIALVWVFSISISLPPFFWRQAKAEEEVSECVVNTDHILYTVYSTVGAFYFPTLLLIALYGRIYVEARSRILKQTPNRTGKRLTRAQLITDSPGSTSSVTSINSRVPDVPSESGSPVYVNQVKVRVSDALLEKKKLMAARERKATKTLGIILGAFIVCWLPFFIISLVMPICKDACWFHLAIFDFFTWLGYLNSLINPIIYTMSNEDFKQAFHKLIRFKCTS

[7] = target: Recombinant human serotonin receptor 5-HT1D (Homo sapiens, UniProt P28221); test: GTPγS functional assay; format: biochemical
Sequence of Recombinant human serotonin receptor 5-HT1D (P28221 whole entry): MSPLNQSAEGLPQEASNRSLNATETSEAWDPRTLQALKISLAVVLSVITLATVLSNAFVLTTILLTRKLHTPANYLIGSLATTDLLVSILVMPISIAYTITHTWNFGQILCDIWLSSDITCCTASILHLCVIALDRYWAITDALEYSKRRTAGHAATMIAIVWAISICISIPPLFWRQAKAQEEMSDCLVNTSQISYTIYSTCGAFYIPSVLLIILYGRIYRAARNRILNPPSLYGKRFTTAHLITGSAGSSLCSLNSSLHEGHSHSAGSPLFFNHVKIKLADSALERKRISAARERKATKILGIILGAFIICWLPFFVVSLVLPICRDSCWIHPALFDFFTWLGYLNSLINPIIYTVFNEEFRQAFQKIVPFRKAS

T1 sequence (P28223 whole entry): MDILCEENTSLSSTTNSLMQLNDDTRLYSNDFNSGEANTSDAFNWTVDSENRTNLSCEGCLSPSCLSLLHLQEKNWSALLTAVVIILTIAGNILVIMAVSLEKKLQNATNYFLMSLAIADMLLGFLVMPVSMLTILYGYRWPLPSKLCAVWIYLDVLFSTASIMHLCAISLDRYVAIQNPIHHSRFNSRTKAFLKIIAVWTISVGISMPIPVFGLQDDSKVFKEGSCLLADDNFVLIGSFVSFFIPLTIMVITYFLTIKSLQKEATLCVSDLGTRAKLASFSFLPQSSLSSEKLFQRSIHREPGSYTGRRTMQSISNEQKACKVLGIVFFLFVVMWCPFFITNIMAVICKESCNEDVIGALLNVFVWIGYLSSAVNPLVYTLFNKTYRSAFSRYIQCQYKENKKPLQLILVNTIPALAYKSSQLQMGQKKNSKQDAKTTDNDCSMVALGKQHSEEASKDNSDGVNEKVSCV

CN1C[C@@H](NC(=O)N(CC(F)(F)F)CC(F)(F)F)C=C2c3cccc4[nH]cc(c34)C[C@H]21 [Compound 5A]
EC50 ([1]; agonist mode, 0.10 nM to 20,000 nM): 5.02 µM | 5-HT2A receptor agonist activity ([1]; in words, compared to lisuride): weak 5-HT2A receptor agonist activity | IC50 ([2]; antagonist mode, 0.005 nM to 10,000 nM, read-out: 5-HT2B antagonism activity, 1050): 0.19 µM | 5-HT2B receptor activity ([2]; in words): 5-HT2B antagonist | EC50 ([3]; 0.005 nM to 10,000 nM, read-out: agonist activity towards the dopaminergic D3 receptor, EC50): 0.027 µM | dopaminergic receptor D3 agonism ([3]; in words, compared to lisuride): weaker dopaminergic receptor D3agonism | D2L agonist activity (Emax) compared to lisuride [4]: comparable D2L agonist activity (Emax) | agonistic activity towards the 5-HT1A receptor [5]: weak/moderate agonistic activity | EC50 [6]: 0.287 µM | selectivity for 5-HT1D to 5-HT1B ([7]; ratio of EC50 values): 20 fold | EC50 ([7]; read-out: 5-HT1D agonism, EC50): 0.015 µM
